“Also recorded” adds a separate entry of the source.

One assay has as its system BACE1. The assay can be described thus: Western blot of BACE1 in APP/PS1 mouse brains. In kind it is in vivo. The following applies: APP/PS1 mice, Compound C diet vs control diet. As to the method:
Male APPΔNLh/ΔNLh×PS1P246 L/246 L knock-in model mice of Alzheimer's disease (abbreviated APP/PS1) were genotyped using standard primers for human APP (Amyloid Precursor Protein) and human PS1 (PSEN1). These APP/PS1 mice starting at the age of 6 months, were fed either a control diet containing normal levels of selenium (0.3 ppm from plant and inorganic selenium salt sources) or an experimental diet containing Compound C (the control diet to which was added 1 ppm Se from Compound C) for 6 months. […]
(§1) Frozen hemispheres of control- and Compound C-treated APP/PS1 mice were weighed and homogenized in PBS buffer, and then subsequently extracted with RIPA buffer (Sigma) containing complete proteinase and phosphatase inhibitors (Fisher Scientific). Protein levels in the samples were determined by micro-BCA protein analysis according to the manufacturer's protocol. […] Positive signals on the membrane blots were detected using Amersham's enhanced chemiluminescence Western Blotting Prime Detection reagents (GE healthcare Lifescience, Pittsburgh, Pa.). Images of these luminescence signals on the membrane blots were captured using the LI-COR Odyssey Fc Image system (Lincoln, Nebr.). Protein band densities in Western blots were determined using NIH Image J software, and then normalized by Actb levels in each samples to obtain the protein levels.

In the next assay the test system is MAPK13. The experiment in a line: QRT-PCR of MAPK13 mRNA in control and FOXO4 KD IMR-32 cells. The class given is cell-based, human. The following applies: 24 hours. How it is done: IMR-32 cells were cultured on 12-well plates for 24 hours and then incubated with FOXO4 siRNA lentiviruses (SC-29650V, Santa Cruz) or control siRNA lentiviruses (sc-108080, Santa Cruz) in the presence of Polybrene (5 μg/ml, Santa Cruz) for 24 hours according to the manufacturer's protocol. These lentiviral siRNA-transfected cells were amplified in normal media for 3 days and then incubated with puromycin for 9-14 days to obtain the stable Control KD (stably transfected with the control siRNAs) and FOXO4KD (stably transfected with Foxo4 siRNAs) cells. These control and Foxo4 KD cells were subjected to cell survival, mitochondrial potential and RNA analysis.
Human IMR-32 cells were seeded on gelatinized 6-well (6.5×10^5 cells/well) or 24-well (1.3×10^5 cells/well) plates. Cells were treated with control (0 ppb) or various compounds for 6 hours or 24 hours. Total RNA from these cells was isolated using Trizol (Invitrogen) according to the manufacturer's protocol, and then incubated with DNase I to remove any potential contaminated genomic DNA. Then RNA samples were subjected to real-time PCR analysis using the Applied-Bioscience's RT kit and predesigned Taqman probes (Invitrogen), as described previously (Lan et al EMBO J 2003). The mRNA levels of UCP1, UCP2, UCP3, SLC25A27 (UCP4), SLC25A14 (UCP5), PSEN1, Nicastrin, GSK3B, MAPK11-14, PPARG, APOE, RCAN1, RCAN1.1, G6PC, INSR, IGF1R and FOXO4 were measured. Three to six samples were analyzed in each treatment group. Data were normalized by Actin B (ACTB) or Glyceraldehyde Phosphate Dehydrogenase (GAPDH) mRNA levels in each sample and are presented as mean±SEM of 3-6 samples.
Normal control cells and FOXO4KD cells were incubated with two doses of Compound C for 24 hours, and subjected to QRT-PCR analysis of the MAPK11-14 genes. The relative mRNA expression of all four MAPK genes in normal control IMR-32 cells was assessed. […] Data in Compound C-treated control and FOXO4 KD cells were normalized by their levels in control and FOXO4KD cells, respectively. Mean±SEM of indicated number of samples in the bar graphs. […]

For assay [1], the system named is phosphorylated Foxo4 (threonine 28). The experiment in a line: Western blot of phosphorylated Foxo4 in APP/PS1 mouse brains. In kind it is in vivo. As to conditions: APP/PS1 mouse brain, Compound C diet vs control diet. As to the method:
Male APPΔNLh/ΔNLh×PS1P246 L/246 L knock-in model mice of Alzheimer's disease (abbreviated APP/PS1) were genotyped using standard primers for human APP (Amyloid Precursor Protein) and human PS1 (PSEN1).
At 12 months of age, the mice were euthanized and the brains quickly removed, the cerebellum isolated and the hemispheres snap-frozen in liquid nitrogen and then stored at −80° C. for further immunohistochemistry (IHC), protein and RNA analysis. All procedures conducted on these animal studies were pre-approved by the University of Kentucky IACUC committee.
as §1, with “Protein band densities in Western blots were determined using NIH Image J software, and then normalized by Actb levels in each samples to obtain the protein levels.” left out
Background: A western blot detects proteins with antibodies after separation by electrophoresis.

Regarding `C[Se]C[C@H]1O[C@@H](n2cnc3c(N)ncnc32)C(O)C1O` (stereo in doubt) [Compound C, 5′-deoxy-5′-methylselenoadenosine], in the assay with BACE1, the “BACE-1 protein levels in the brains” value is reported as “reduced; also recorded: decreased”. Moreover, the “MAPK13 mRNA levels” value is “none of the mRNA levels of the four MAPK genes in FOXO4KD cells were significantly altered” with MAPK13 (FOXO4KD cells, 75 ppb and 150 ppb); “trend towards decreased” in the assay with MAPK13 (control KD cells, 75 ppb); “significantly decreased” with MAPK13 (control KD cells, 150 ppb). Further, the “phosphorylated Foxo4 at threonine 28 (pFoxo4) protein” value in assay [1] is “inhibition; also recorded: less abundant; also recorded: significantly decreased”.

These data come from patent US10201558B2, “Compositions of selenoorganic compounds and methods of use thereof” (Alltech, Inc., priority 2014, dated 2019).
